Laboratory results from US9169254B2, “Spiroimidazolone derivative” (Chugai Seiyaku Kabushiki Kaisha, priority 2009, dated 2015).

target: T1, human PTH1 receptor (Homo sapiens, UniProt Q03431); experiment: In vitro cAMP signal activity in HKRK-B7 cells (LLC-PK1 cells overexpressing the human PTH1 receptor); type: cell-based; conditions: HKRK-B7 cells; compound at 1×10^−3 M; cAMP produced as percentage of that produced by hPTH(1-34) at 100 nM
T1 sequence (Q03431 27-593): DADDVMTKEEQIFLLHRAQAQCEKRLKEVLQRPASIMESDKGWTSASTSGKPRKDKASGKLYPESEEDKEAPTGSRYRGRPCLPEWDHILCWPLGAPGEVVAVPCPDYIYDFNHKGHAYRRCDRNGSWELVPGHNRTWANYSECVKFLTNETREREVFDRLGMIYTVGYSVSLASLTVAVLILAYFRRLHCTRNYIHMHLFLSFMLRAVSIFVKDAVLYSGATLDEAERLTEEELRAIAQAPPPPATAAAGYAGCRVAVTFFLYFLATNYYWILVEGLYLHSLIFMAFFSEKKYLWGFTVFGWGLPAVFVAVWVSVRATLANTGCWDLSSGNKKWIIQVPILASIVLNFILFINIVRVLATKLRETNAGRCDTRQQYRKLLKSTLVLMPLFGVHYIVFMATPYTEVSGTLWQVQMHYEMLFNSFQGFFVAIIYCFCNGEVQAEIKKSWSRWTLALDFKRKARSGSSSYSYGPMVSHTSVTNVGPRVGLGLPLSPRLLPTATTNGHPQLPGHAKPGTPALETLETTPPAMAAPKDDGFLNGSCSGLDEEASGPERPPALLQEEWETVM

Row | cAMP production activity (%) | SMILES
1 | 36 | Cc1cc(C(=O)N2CCN(C(=O)N(C)C)CC2)ccc1CCS(=O)(=O)N1CCC2(CC1)N=C(c1cccc(C(F)(F)F)c1)NC2=O [Compound 382, 4-(3-methyl-4-{2-[4-oxo-2-(3-trifluoromethyl-phenyl)-1,3,8-triaza-spiro[4.5]dec-1-ene-8-sulfonyl]-ethyl}-benzoyl)-piperazine-1-carboxylic acid dimethylamide]
2 | 72 | Cc1cc(C(=O)N(C)C)cc(C)c1/C=C/S(=O)(=O)N1CCC2(CC1)N=C(c1cccc(C(F)(F)F)c1)NC2=O [Compound 383, 3,5,N,N-Tetramethyl-4-{(E)-2-[4-oxo-2-(3-trifluoromethyl-phenyl)-1,3,8-triaza-spiro[4.5]dec-1-ene-8-sulfonyl]-vinyl}-benzamide]
3 | 61 | Cc1cc(C(=O)N2CCC(O)CC2)cc(C)c1/C=C/S(=O)(=O)N1CCC2(CC1)N=C(c1cccc(C(F)(F)F)c1)NC2=O [Compound 384, 8-{(E)-2-[4-(4-hydroxy-piperidine-1-carbonyl)-2,6-dimethyl-phenyl]-ethenesulfonyl}-2-(3-trifluoromethyl-phenyl)-1,3,8-triaza-spiro[4.5]dec-1-en-4-one]
4 | 94 | Cc1cc(C(=O)N2CC(O)C2)cc(C)c1/C=C/S(=O)(=O)N1CCC2(CC1)N=C(c1cccc(C(F)(F)F)c1)NC2=O [Compound 385, 8-{(E)-2-[4-(3-hydroxy-azetidine-1-carbonyl)-2,6-dimethyl-phenyl]-ethenesulfonyl}-2-(3-trifluoromethyl-phenyl)-1,3,8-triaza-spiro[4.5]dec-1-en-4-one]
5 | 86 | Cc1cc(C(=O)N2CCC(O)(CO)CC2)cc(C)c1/C=C/S(=O)(=O)N1CCC2(CC1)N=C(c1cccc(C(F)(F)F)c1)NC2=O [Compound 386, 8-{(E)-2-[4-(4-hydroxy-4-hydroxymethyl-piperidine-1-carbonyl)-2,6-dimethyl-phenyl]-ethenesulfonyl}-2-(3-trifluoromethyl-phenyl)-1,3,8-triaza-spiro[4.5]dec-1-en-4-one]
6 | 97 | Cc1cc(C(=O)N2C[C@@H](O)[C@H](N(C)C)C2)cc(C)c1/C=C/S(=O)(=O)N1CCC2(CC1)N=C(c1cccc(C(F)(F)F)c1)NC2=O [Compound 387, 8-{(E)-2-[4-((3R,4R)-3-dimethylamino-4-hydroxy-pyrrolidine-1-carbonyl)-2,6-dimethyl-phenyl]-ethenesulfonyl}-2-(3-trifluoromethyl-phenyl)-1,3,8-triaza-spiro[4.5]dec-1-en-4-one]
7 | 84 | Cc1cc(C(=O)N2CCCC2)cc(C)c1/C=C/S(=O)(=O)N1CCC2(CC1)N=C(c1cccc(C(F)(F)F)c1)NC2=O [Compound 388, 8-{(E)-2-[2,6-dimethyl-4-(pyrrolidine-1-carbonyl)-phenyl]-ethenesulfonyl}-2-(3-trifluoromethyl-phenyl)-1,3,8-triaza-spiro[4.5]dec-1-en-4-one]
8 | 75 | Cc1cc(C(=O)N(C)CCCO)cc(C)c1/C=C/S(=O)(=O)N1CCC2(CC1)N=C(c1cccc(C(F)(F)F)c1)NC2=O [Compound 389, N-(3-hydroxy-propyl)-3,5,N-trimethyl-4-{(E)-2-[4-oxo-2-(3-trifluoromethyl-phenyl)-1,3,8-triaza-spiro[4.5]dec-1-ene-8-sulfonyl]-vinyl}-benzamide]
9 | 22 | Cc1cc(C(=O)N(C)CCN(C)C)cc(C)c1/C=C/S(=O)(=O)N1CCC2(CC1)N=C(c1cccc(C(F)(F)F)c1)NC2=O [Compound 390, N-(2-dimethylamino-ethyl)-3,5,N-trimethyl-4-{(E)-2-[4-oxo-2-(3-trifluoromethyl-phenyl)-1,3,8-triaza-spiro[4.5]dec-1-ene-8-sulfonyl]-vinyl}-benzamide]
10 | 26 | Cc1cc(C(=O)N(C)CCCN(C)C)cc(C)c1/C=C/S(=O)(=O)N1CCC2(CC1)N=C(c1cccc(C(F)(F)F)c1)NC2=O [Compound 391, N-(3-dimethylamino-propyl)-3,5,N-trimethyl-4-{(E)-2-[4-oxo-2-(3-trifluoromethyl-phenyl)-1,3,8-triaza-spiro[4.5]dec-1-ene-8-sulfonyl]-vinyl}-benzamide]
11 | 83 | Cc1cc(C(=O)N(C)CC(N)=O)cc(C)c1/C=C/S(=O)(=O)N1CCC2(CC1)N=C(c1cccc(C(F)(F)F)c1)NC2=O [Compound 392, N-carbamoylmethyl-3,5,N-trimethyl-4-{(E)-2-[4-oxo-2-(3-trifluoromethyl-phenyl)-1,3,8-triaza-spiro[4.5]dec-1-ene-8-sulfonyl]-vinyl}-benzamide]
12 | 44 | Cc1cc(C(=O)N(C)C2CCN(C)CC2)cc(C)c1/C=C/S(=O)(=O)N1CCC2(CC1)N=C(c1cccc(C(F)(F)F)c1)NC2=O [Compound 393, 3,5,N-trimethyl-N-(1-methyl-piperidin-4-yl)-4-{(E)-2-[4-oxo-2-(3-trifluoromethyl-phenyl)-1,3,8-triaza-spiro[4.5]dec-1-ene-8-sulfonyl]-vinyl}-benzamide]
13 | 59 | CC(=O)N1CCN(C(=O)c2cc(C)c(/C=C/S(=O)(=O)N3CCC4(CC3)N=C(c3cccc(OC(F)(F)F)c3)NC4=O)c(C)c2)CC1 [Compound 394, 8-{(E)-2-[4-(4-Acetyl-piperazine-1-carbonyl)-2,6-dimethyl-phenyl]-ethenesulfonyl}-2-(3-trifluoromethoxy-phenyl)-1,3,8-triaza-spiro[4.5]dec-1-en-4-one]
14 | 88 | Cc1cc(C(=O)N2CCN(C(=O)N(C)C)CC2)cc(C)c1/C=C/S(=O)(=O)N1CCC2(CC1)N=C(c1cccc(OC(F)(F)F)c1)NC2=O [Compound 395, 4-(3,5-dimethyl-4-{(E)-2-[4-oxo-2-(3-trifluoromethoxy-phenyl)-1,3,8-triaza-spiro[4.5]dec-1-ene-8-sulfonyl]-vinyl}-benzoyl)-piperazine-1-carboxylic acid dimethylamide]
15 | 85 | Cc1cc(C(=O)N2CCN(C(N)=O)CC2)cc(C)c1/C=C/S(=O)(=O)N1CCC2(CC1)N=C(c1cccc(OC(F)(F)F)c1)NC2=O [Compound 396, 4-(3,5-dimethyl-4-{(E)-2-[4-oxo-2-(3-trifluoromethoxy-phenyl)-1,3,8-triaza-spiro[4.5]dec-1-ene-8-sulfonyl]-vinyl}-benzoyl)-piperazine-1-carboxylic acid amide]
16 | 126 | Cc1cc(C(=O)N2CCN(CCCN(C)C)CC2)cc(C)c1/C=C/S(=O)(=O)N1CCC2(CC1)N=C(c1cccc(OC(F)(F)F)c1)NC2=O [Compound 397, 8-((E)-2-{4-[4-(3-dimethylamino-propyl)-piperazine-1-carbonyl]-2,6-dimethyl-phenyl}-ethenesulfonyl)-2-(3-trifluoromethoxy-phenyl)-1,3,8-triaza-spiro[4.5]dec-1-en-4-one]
17 | 52 | CN[C@@H]1CCN(C(=O)c2cc(C)c(/C=C/S(=O)(=O)N3CCC4(CC3)N=C(c3cccc(OC(F)(F)F)c3)NC4=O)c(C)c2)C1 [Compound 398, 8-{(E)-2-[2,6-dimethyl-4-((R)-3-methylamino-pyrrolidine-1-carbonyl)-phenyl]-ethenesulfonyl}-2-(3-trifluoromethoxy-phenyl)-1,3,8-triaza-spiro[4.5]dec-1-en-4-one]
